The values below are quoted from earlier work in US20200289431A1 (priority 2019, published 2020).

One data set addresses cannabinoid CB2 receptor (Homo sapiens, UniProt P34972).
For data set [1] the following is noted: in vivo.

SMILES strings stand for the structures.

Chain of cannabinoid CB2 receptor (P34972 whole entry): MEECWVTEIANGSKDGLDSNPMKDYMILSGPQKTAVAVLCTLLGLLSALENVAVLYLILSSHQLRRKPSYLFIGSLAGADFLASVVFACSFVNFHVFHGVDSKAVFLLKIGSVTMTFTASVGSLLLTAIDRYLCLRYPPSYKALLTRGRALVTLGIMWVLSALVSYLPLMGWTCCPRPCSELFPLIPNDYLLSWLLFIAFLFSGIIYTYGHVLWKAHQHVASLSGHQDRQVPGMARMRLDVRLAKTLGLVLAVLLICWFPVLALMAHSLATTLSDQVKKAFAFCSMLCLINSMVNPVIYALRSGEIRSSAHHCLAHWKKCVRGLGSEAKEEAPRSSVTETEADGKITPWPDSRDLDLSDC

For `C=C(C)[C@@H]1CCC(C)=C[C@H]1c1c(O)cc(CCCCC)cc1O` [Cannabidiol], the “affinity for the cannabinoid CB2 receptor” value on cannabinoid CB2 receptor is given as “very low affinity”. Moreover, the elimination half-life in data set [1] was 18 to 32 h.
